From patent publication US7691582B2, “Methods of secretory vimentin detection and modulation” (The Regents of the University of Michigan, priority 2002, dated 2010)
Entries after “also recorded” stand apart in the source; their conditions may differ.

How the values were obtained:
Format in all cases: cell-based, human
[1] = test system: vimentin proteolysis in MDM; test: Vimentin proteolytic products in MDM, Western blot with V9; settings: MDM treated with E-64 [100 µM], 12 h; FIG. 3e
Experimental: Cells were maintained for 12-48 h in serum-free medium. When applicable, during the incubation in serum-free media cells were treated for 12 h with 10-500 ng ml^−1 IL-10, 0.5-5 ng ml^−1 TNF-α, 4 μg ml^−1 tunicamycin, E-64 [100 µM] (Sigma), or 2 or 4 μg ml^−1 monensin (Pharmingen). Alternatively, cells were treated for 2 h with GÖ 6983 [250 nM], SB 203580 [100 μM], or OA [100 nM] (Calbiochem) followed by 12 h incubation in serum-free media or treatment with TNF-α. The viability of the cells up to 48 h was almost 100% as measured by MTT assay (Boehringer Mannheim, Indianapolis, Ind.) and LDH release as previously described^12. Supernatants were collected and centrifuged for 20 min at 1500 RPM to remove cell debris and concentrated by a centrifugal filter device (Millipore) in the presence of a protease inhibitor cocktail (Boehringer Mannheim, Indianapolis, Ind.) and were either used immediately or stored at −70° C. Cells were washed and lysed with 1 ml lysis buffer (50 mM Tris pH 7.5, 150 mM NaCl, 1% NP-40 0.1% SDS, 0.5% Na-Deoxycholate and complete EDTA-free protease inhibitor cocktail) was added to the cells and allowed to incubate on ice for 15 min. […] Chemiluminescent signal was detected using the Super Signal West Pico system (Pierce Chemical Co, Rockford, Ill.).

[2] = test system: secretion of vimentin from MDM; test: Vimentin secretion by MDM, Western blot of supernatants; settings: for vimentin secretion (vimentin in the supernatant): MDM treated 2 h with inhibitor (GÖ 6983 250 nM; SB 203580 100 μM), FIGS. 3c, 4a, 4b; for secretion of vimentin from the mature MDM: eleven day MDM, 40% human serum, monensin 2 or 4 μg ml−1 or tunicamycin 4 μg ml−1, 12 h, FIG. 2h
Experimental: Monocyte-derived macrophages (MDMs) were prepared as previously described^40. Briefly, heparinized venous blood was collected upon consent from healthy volunteers, and peripheral blood mononuclear cells (PBMC) were separated by Ficoll-Hypaque (Pharmacia Biotech AB, Uppsala, Sweden) density gradient centrifugation. MDM were purified by adherence to plastic for 2 hat […] at a concentration of 5×10^5 ml^−1. Adherent cells were consistently >90% monocytes as described^40. Adherence-purified human monocytes were cultured in X-vivo medium supplemented with 40% human AB serum (Bio-Whittaker, Walkersville, Md.) and 100 units of penicillin and 50 units of streptomycin per ml^12.
Cells were maintained for 12-48 h in serum-free medium. When applicable, during the incubation in serum-free media cells were treated for 12 h with 10-500 ng ml^−1 IL-10, 0.5-5 ng ml^−1 TNF-α, 4 μg ml^−1 tunicamycin, E-64 [100 µM] (Sigma), or 2 or 4 μg ml^−1 monensin (Pharmingen). Alternatively, cells were treated for 2 h with GÖ 6983 [250 nM], SB 203580 [100 μM], or OA [100 nM] (Calbiochem) followed by 12 h incubation in serum-free media or treatment with TNF-α. The viability of the cells up to 48 h was almost 100% as measured by MTT assay (Boehringer Mannheim, Indianapolis, Ind.) and LDH release as previously described^12. Supernatants were collected and centrifuged for 20 min at 1500 RPM to remove cell debris and concentrated by a centrifugal filter device (Millipore) in the presence of a protease inhibitor cocktail (Boehringer Mannheim, Indianapolis, Ind.) and were either used immediately or stored at −70° C. Cells were washed and lysed with 1 ml lysis buffer (50 mM Tris pH 7.5, 150 mM NaCl, 1% NP-40 0.1% SDS, 0.5% Na-Deoxycholate and complete EDTA-free protease inhibitor cocktail) was added to the cells and allowed to incubate on ice for 15 min. The lysate was centrifuged at 10,000 rpm for 20 min at 4° C., the supernatant recovered, and the protein extract was either used immediately or stored at −70° C. Equal amounts of protein (20 μg) were loaded under reducing conditions and separated by 10% SDS PAGE. The gel was transferred to nitrocellulose and immunoblotted with mouse monoclonal anti-vimentin antibody V9 (Research Genetics, Inc), goat anti-vimentin antibody (Chemicon International, Calif.) or goat anti-actin (Santa-Cruz Biotechnology, Inc) followed by a horseradish peroxidase-conjugated appropriate secondary antibody. Chemiluminescent signal was detected using the Super Signal West Pico system (Pierce Chemical Co, Rockford, Ill.).

[3] = test system: phosphorylated vimentin in MDM; test: Immunoprecipitation with anti-phospho-(Ser/Thr) antibody, vimentin detected by V9; settings: 7 day MDM in 10% serum; okadaic acid 100 nM or GÖ 6983 250 nM, 2 h; FIG. 4d
vimentin in 12 day MDM = test: In vivo phosphorylation of vimentin, [32P] orthophosphate incorporation in 12 day MDM; settings: GÖ 6983 250 nM or OA 100 nM during [32P] labeling, Western blot of same membrane, FIG. 4e
Experimental: 12 day MDM (1.5×10^6) were rinsed three times with phosphate-free RPMI medium (Gibco-BRL, Grand Island, N.Y.). Cells were incubated in 5 ml of phosphate-free RPMI media and allowed to equilibrate at 37 ° C. in a 6 well plate for 2 h. The media was replaced with 1 ml/well of phosphate-free RPMI media with 10% dialysed human serum and 0.166 mCi of [^32P] orthophosphoric acid (Amersham Pharmacia Biotech) for 6 h of incubation. In addition to the control, some wells were treated with GÖ 6983 [250 nM] or OA [100 nM]. Following treatment, medium was removed and replaced by serum free medium for 18 h. Supernatant and cells were prepared for immunoprecipitation as described above (Metabolic Labeling section). Phosphorylated vimentin protein was immunoprecipitated as above, and the samples were separated by 10% SDS-PAGE electrophoresis under reducing conditions. Proteins were transferred to nitrocellulose and subjected to autoradiography for 4 h then immunoblotted with mouse monoclonal anti-vimentin antibody (Research Genetics, Inc.), stripped and re-probed with goat polyclonal anti-vimentin antibody (Chemicon International, Calif.), followed by horseradish peroxidase-conjugated goat anti-mouse or rabbit anti-goat secondary antibodies. Chemiluminescent signal was detected using the Super Signal West Pico system (Pierce Chemical Co, Rockford, Ill.).

[4] = test system: secretion of vimentin from MDM; test: Vimentin secretion by MDM, Western blot of supernatants

## CC(C)C[C@H](NC(=O)[C@H]1O[C@@H]1C(=O)O)C(=O)NCCCCN=C(N)N [E-64]
[1]
  vimentin proteolytic products, intracellularly and in the supernatant: marked decrease

## COc1ccc2c(c1)c(C1=C(c3c[nH]c4ccccc34)C(=O)NC1=O)cn2CCCN(C)C [GÖ6983]
[2]; 40% serum treated MDM, GÖ6983 followed by TNF-α
  secretion of vimentin in the presence of TNF-α: not blocked
[2]
  vimentin secretion (vimentin in the supernatant): almost completely blocked; also recorded: significantly blocked
[2]; eleven day MDM with or without GÖ6983, FIG. 3c
  amount of actin detected in the supernatants: does not modify the amount of actin
[3]
  amount of phosphorylated vimentin in cells (cytoplasm) and supernatant: markedly decreased the amount of phosphorylated vimentin in the cytoplasm as well as in the supernatant
Vimentin in 12 day MDM
  secretion of vimentin (62 kD and 52 kD forms): eliminated essentially all the secretion of vimentin
[4]; 7 day MDM in 10% serum, preincubated with GÖ 6983 250 nM 2 h prior to OA 100 nM, FIG. 4b
  OA-enhanced vimentin secretion: partially decreased

## CC[C@@]1([C@@H]2O[C@@H]([C@H]3O[C@@](O)(CO)[C@H](C)C[C@@H]3C)C[C@@H]2C)CC[C@H]([C@]2(C)CC[C@]3(C[C@H](O)[C@@H](C)[C@@H]([C@@H](C)[C@@H](OC)[C@H](C)C(=O)O)O3)O2)O1 [Monensin, monensin]
[2]
  secretion of vimentin from the mature MDM: eliminate secretion of vimentin

## C=C1[C@@H](O)[C@@H]2O[C@]3(CC[C@H](/C=C/[C@@H](C)[C@@H]4CC(C)=C[C@@]5(O[C@H](C[C@@](C)(O)C(=O)O)CC[C@H]5O)O4)O3)CC[C@H]2O[C@@H]1[C@@H](O)C[C@H](C)[C@H]1O[C@@]2(CCCCO2)CC[C@H]1C [OA, okadaic acid]
[2]; 10 day MDM in 40% serum, okadaic acid 100 nM, 2 h, FIG. 4a
  extracellular vimentin levels: led to an increase in extracellular vimentin levels
[3]
  amount of phosphorylated vimentin in cells (cytoplasm) and supernatant: increase in phosphorylated vimentin in the supernatants but not in the cells
Vimentin in 12 day MDM
  secretion of vimentin (62 kD and 52 kD forms): preferentially enhances secretion of the 52 kD form
[4]; 7 day MDM in 10% serum, okadaic acid 100 nM, 2 h, FIG. 4b
  increase in vimentin secretion: > 10 fold

## C[S+]([O-])c1ccc(-c2nc(-c3ccncc3)c(-c3ccc(F)cc3)[nH]2)cc1 (stereo not shown) [SB203580]
[2]
  vimentin secretion (vimentin in the supernatant): did not block secretion

## TNF-α
[4]; 1 day human monocytes in 10% human serum, TNF-α 0.5, 1 or 5 ng ml−1, 12 h, densitometry, FIGS. 5b, 5c
  induction of secretion of vimentin: up to 120 fold

## tunicamycin
[2]
  secretion of vimentin from the mature MDM: eliminate secretion of vimentin

B1: IL-10: anti-inflammatory cytokine, a potent inhibitor of activated macrophages (protein, UniProt P22301 19-178, looked up)
Interleukin-10: SPGQGTQSENSCTHFPGNLPNMLRDLRDAFSRVKTFFQMKDQLDNLLLKESLLEDFKGYLGCQALSEMIQFYLEEVMPQAENQDPDIKAHVNSLGENLKTLRLRLRRCHRFLPCENKSKAVEQVKNAFNKLQEKGIYKAMSEFDIFINYIEAYMTMKIRN
[2]; MDM in 40% human serum, IL-10 10, 50 or 500 ng ml−1, 12 h, FIG. 5a
  secretion of vimentin: markedly decreased the secretion of vimentin
